Data published in patent US12251382B2, “Substituted amino-pyrimidine compound for use in a method for treatment and prevention of multiple sclerosis” (Merck Patent GmbH, priority 2018, dated 2025).
Where two headings read alike, the source gives them in different places.

Legend:
[1] = tested on: M1 macrophages; details: in vitro; cited from earlier work
[2] = tested on: RA and SLE models; details: in vivo; cited from earlier work
[3] = Part 1, pooled active, listed as evobrutinib

SMILES: C=CC(=O)N1CCC(CNc2ncnc(N)c2-c2ccc(Oc3ccccc3)cc2)CC1 [Evobrutinib, 1-(4-(((6-amino-5-(4-phenoxyphenyl)pyrimidin-4-yl)amino)methyl)piperidin-1-yl)prop-2-en-1-one]
- Effects on macrophages [1]: inhibiting the activation, differentiation and polarisation of M1 macrophages and by promoting the M2 macrophage-phenotype
- Activity in RA and SLE models [2]: robust activity
- Severity of TEAEs (Part 1): mild (Grade 1) except in one subject in the 200 mg treatment group
- Subjects with contact dermatitis at locations of ECG pads (Part 1, all evobrutinib doses): 5.6%
- Subjects with headache (Part 1, all evobrutinib doses): 5.6%
- Dose-limiting TEAE (Part 1, one subject in the 200 mg treatment group): Grade 4 increased lipase in combination with Grade 3 increased amylase
- Abdominal pain, subjects (Part 1, pooled active): 0 (0.0) n (%)
- Amylase increased, number of TEAEs (Part 1, pooled active): [1]
- Amylase increased, subjects (Part 1, pooled active): 1 (2.8) n (%)
- Application site pruritus (due to ECG stickers), subjects (Part 1, pooled active): 0 (0.0) n (%)
- Back pain, number of TEAEs (Part 1, pooled active): [1]
- Back pain, subjects (Part 1, pooled active): 1 (2.8) n (%)
- Contact dermatitis, number of TEAEs (Part 1, pooled active): [2]
- Contact dermatitis, subjects (Part 1, pooled active): 2 (5.6) n (%)
- Dizziness, number of TEAEs (Part 1, pooled active): [1]
- Dizziness, subjects (Part 1, pooled active): 1 (2.8) n (%)
- Dry eye, number of TEAEs (Part 1, pooled active): [1]
- Dry eye, subjects (Part 1, pooled active): 1 (2.8) n (%)
- Dry mouth, subjects (Part 1, pooled active): 0 (0.0) n (%)
- Dyspepsia, number of TEAEs (Part 1, pooled active): [1]
- Dyspepsia, subjects (Part 1, pooled active): 1 (2.8) n (%)
- Excoriation, number of TEAEs (Part 1, pooled active): [1]
- Excoriation, subjects (Part 1, pooled active): 1 (2.8) n (%)
- Headache, number of TEAEs (Part 1, pooled active): [3]
- Headache, subjects (Part 1, pooled active): 2 (5.6) n (%)
- Lipase increased, number of TEAEs (Part 1, pooled active): [1]
- Lipase increased, subjects (Part 1, pooled active): 1 (2.8) n (%)
- Multiple injuries, number of TEAEs (Part 1, pooled active): [1]
- Multiple injuries, subjects (Part 1, pooled active): 1 (2.8) n (%)
- Nasal congestion, number of TEAEs (Part 1, pooled active): [1]
- Nasal congestion, subjects (Part 1, pooled active): 1 (2.8) n (%)
- Noncardiac chest pain, subjects (Part 1, pooled active): 0 (0.0) n (%)
- Odynophagia, number of TEAEs (Part 1, pooled active): [1]
- Odynophagia, subjects (Part 1, pooled active): 1 (2.8) n (%)
- Overall total TEAEs, subjects (Part 1, pooled active): 9 (25.5) n (%)
- Overall total, number of TEAEs (Part 1, pooled active): [15]
- Upper respiratory tract infection, subjects (Part 1, pooled active): 0 (0.0) n (%)
- Contact dermatitis, number of TEAEs [3]: two
- Headache, number of TEAEs [3]: three
- Overall total, number of TEAEs [3]: 15
- Abdominal pain, subjects (Part 1, single dose 25 mg): 0 (0.0) n (%)
- Amylase increased, subjects (Part 1, single dose 25 mg): 0 (0.0) n (%)
- Application site pruritus (due to ECG stickers), subjects (Part 1, single dose 25 mg): 0 (0.0) n (%)
- Back pain, subjects (Part 1, single dose 25 mg): 0 (0.0) n (%)
- Contact dermatitis, subjects (Part 1, single dose 25 mg): 0 (0.0) n (%)
- Dizziness, subjects (Part 1, single dose 25 mg): 0 (0.0) n (%)
- Dry eye, subjects (Part 1, single dose 25 mg): 0 (0.0) n (%)
- Dry mouth, subjects (Part 1, single dose 25 mg): 0 (0.0) n (%)
- Dyspepsia, subjects (Part 1, single dose 25 mg): 0 (0.0) n (%)
- Excoriation, subjects (Part 1, single dose 25 mg): 0 (0.0) n (%)
- Headache, subjects (Part 1, single dose 25 mg): 0 (0.0) n (%)
- Lipase increased, subjects (Part 1, single dose 25 mg): 0 (0.0) n (%)
- Multiple injuries, subjects (Part 1, single dose 25 mg): 0 (0.0) n (%)
- Nasal congestion, subjects (Part 1, single dose 25 mg): 0 (0.0) n (%)
- Noncardiac chest pain, subjects (Part 1, single dose 25 mg): 0 (0.0) n (%)
- Odynophagia, subjects (Part 1, single dose 25 mg): 0 (0.0) n (%)
- Overall total TEAEs, subjects (Part 1, single dose 25 mg): 0 (0.0) n (%)
- Upper respiratory tract infection, subjects (Part 1, single dose 25 mg): 0 (0.0) n (%)
- Abdominal pain, subjects (Part 1, single dose 50 mg): 0 (0.0) n (%)
- Amylase increased, subjects (Part 1, single dose 50 mg): 0 (0.0) n (%)
- Application site pruritus (due to ECG stickers), subjects (Part 1, single dose 50 mg): 0 (0.0) n (%)
- Back pain, number of TEAEs (Part 1, single dose 50 mg): [1]
- Back pain, subjects (Part 1, single dose 50 mg): 1 (16.7) n (%)
- Contact dermatitis, number of TEAEs (Part 1, single dose 50 mg): [2]
- Contact dermatitis, subjects (Part 1, single dose 50 mg): 2 (33.3) n (%)
- Dizziness, subjects (Part 1, single dose 50 mg): 0 (0.0) n (%)
- Dry eye, subjects (Part 1, single dose 50 mg): 0 (0.0) n (%)
- Dry mouth, subjects (Part 1, single dose 50 mg): 0 (0.0) n (%)
- Dyspepsia, number of TEAEs (Part 1, single dose 50 mg): [1]
- Dyspepsia, subjects (Part 1, single dose 50 mg): 1 (16.7) n (%)
- Excoriation, subjects (Part 1, single dose 50 mg): 0 (0.0) n (%)
- Headache, number of TEAEs (Part 1, single dose 50 mg): [2]
- Headache, subjects (Part 1, single dose 50 mg): 1 (16.7) n (%)
- Lipase increased, subjects (Part 1, single dose 50 mg): 0 (0.0) n (%)
- Multiple injuries, subjects (Part 1, single dose 50 mg): 0 (0.0) n (%)
- Nasal congestion, subjects (Part 1, single dose 50 mg): 0 (0.0) n (%)
- Noncardiac chest pain, subjects (Part 1, single dose 50 mg): 0 (0.0) n (%)
- Odynophagia, subjects (Part 1, single dose 50 mg): 0 (0.0) n (%)
- Overall total TEAEs, subjects (Part 1, single dose 50 mg): 3 (50.0) n (%)
- Overall total, number of TEAEs (Part 1, single dose 50 mg): [6]
- Upper respiratory tract infection, subjects (Part 1, single dose 50 mg): 0 (0.0) n (%)
- Abdominal pain, subjects (Part 1, single dose 100 mg): 0 (0.0) n (%)
- Amylase increased, subjects (Part 1, single dose 100 mg): 0 (0.0) n (%)
- Application site pruritus (due to ECG stickers), subjects (Part 1, single dose 100 mg): 0 (0.0) n (%)
- Back pain, subjects (Part 1, single dose 100 mg): 0 (0.0) n (%)
- Contact dermatitis, subjects (Part 1, single dose 100 mg): 0 (0.0) n (%)
